According to PMC6194685, “The antityrosinase and antioxidant activities of flavonoids dominated by the number and location of phenolic hydroxyl groups” (Chinese Medicine, 2018):

Assays:
mushroom tyrosinase [1] = biological target: T1, mushroom tyrosinase (Agaricus bisporus, UniProt C7FF04); test: Determination of the inhibition type and inhibition constant (Lineweaver–Burk plots); format: biochemical; conditions: plots of enzyme activity versus enzyme concentration, oxidation of L-DOPA
[2] = ABTS free radical scavenging activity; conditions: n = 3; read-out: IC50, ABTS free radical scavenging capacity
Method: According to the references of Wan et al., ABTS free radical scavenging capacity was measured. […] ABTS ^+ was produced by reacting 2.45 mmol/L potassium persulfate (K2S2O8) with the ABTS stock solution. The reaction lasted 12–16 h at room temperature in the dark. […] Samples (0.5 mL) were added to ABTS^+ (5 mL) for 6 min. The control group contains 0.5 mL of ethanol and 5 mL of ABTS^+ solution. Each sample was examined in three times and averaged.

[3] = DPPH free radical scavenging activity; conditions: n = 3; read-out: IC50, DPPH free radical scavenging capacity
Method: According to the references of Lee et al., DPPH free radical scavenging capacity was measured. […] In room temperature and a dark environment, the reaction lasted 30 min. […] Each sample was examined in three times and averaged.

mushroom tyrosinase [4] = biological target: T1, mushroom tyrosinase; test: Determination of the inhibition type and inhibition constant (Lineweaver–Burk plots); format: biochemical; conditions: for inhibition type: Lineweaver–Burk double-reciprocal plots, tyrosinase diphenolase; for KIS (inhibitor binding with enzyme–substrate complex): plot of vertical intercept (1/Vmapp) versus inhibitor concentration, oxidation of L-DOPA
Method: By Lineweaver–Burk plot, the inhibition type was assayed. The inhibition constant was assayed by the second plots of the apparent Km/Vmapp or 1/Vmapp versus the concentration of the inhibitor.

[5] = system: lipid peroxidation in rat liver mitochondria; test: Lipid peroxidation assay in liver mitochondria in vitro (Fe2+/vitamin C); format: biochemical, Sprague–Dawley (SD) rats; conditions: n = 3, read-out: IC50, inhibiting lipid peroxidation
Method: Using the diagnostic kits from Biyuntian (Shanghai, China), liver mitochondria were obtained. The liver mitochondria from Sprague–Dawley (SD) rats were obtained, according to the references of Zuo et al.. In the tubes, 1 mL of mitochondria liquid, 0.5 mL of antioxidant solution, 0.25 mL of 1 mM Vitamin C, and 0.25 mL of 0.1 mM Fe^2+ were added in turn. The positive control group contains 0.5 mL of 0.05 M PBS buffer, instead of the antioxidant solution. The blank group was added 1 mL of mitochondrial liquid and 1 mL of 0.05 M PBS buffer. […] The test tubes were placed in the water for 30 min at 95 °C, then centrifuged for 10 min at 1372g. The wavelength used was 532 nm. Each sample was examined in three times and averaged.

[6] = Hydroxyl free radical scavenging activity; conditions: n = 3; read-out: IC50, hydroxyl free radical scavenging capacity
Method: In the tube, 0.2 mL of samples, 1 mL of PBS buffer (pH = 7.4),0.2 mL of 5 mmol/L phenanthroline, 0.2 mL of 7.5 mmol/L FeSO4, 0.2 mL of 0.05% H2O2, 3.2 mL of ethanol were added in turn for 20 min in 37 °C. The wavelength used was 536 nm. Each sample was examined in three times and averaged. The hydroxyl free radical scavenging activity was examined according to the formula:4 Hydroxylfreeradicalscavengingactivity%=AC-AS/AC×100% where AS is the absorbance value with samples and AC is the absorbance value without samples.

[7] = Superoxide free radical scavenging activity (pyrogallol self-oxidation); conditions: n = 3; read-out: IC50, superoxide free radical scavenging capacity
Method: According to the references of Shen et al., superoxide free radical scavenging capacity was measured using Varioskan Flash multifunction microplate reader (Thermo scientific, USA) and 96 wells plates. Each well was added 264 μL PBS buffer (pH = 8.2), 12 μL samples of different concentrations, 25 °C for 10 min. Then 24 μL of 1.25 mmoL/L pyrogallol solution was added and shaken 3 s quickly. The blank group is ethanol. Absorbance values were measured every 30 s. The reaction lasted 5 min in 37 °C. The wavelength used was 320 nm. Each sample was measured in triplicate and averaged. The slope is the self-oxidation rate of pyrogallol. The lower slope indicated the better superoxide free radicals scavenging capacity. Each sample was examined in three times and averaged. The inhibitory rate was examined according to the formula:5 Superoxidefreeradicalscavengingactivity%=SC-SS/SC×100% where SC is the slope value without samples and SS is the slope value with samples.

[8] = parameters: method as in Xu [31]; conditions: ref Xu [31]; cited from earlier work
[9] = parameters: method as in Xu [31]; conditions: ref Xu [31]; cited from earlier work; remark: listed apart in the source
[10] = parameters: method as in Xu [31]; conditions: ref Xu [31]; cited from earlier work; remark: listed apart in the source
[11] = discussion; no reference given; cited from earlier work
[12] = discussion; no reference given; cited from earlier work; remark: listed apart in the source

T1 sequence (C7FF04 2-392): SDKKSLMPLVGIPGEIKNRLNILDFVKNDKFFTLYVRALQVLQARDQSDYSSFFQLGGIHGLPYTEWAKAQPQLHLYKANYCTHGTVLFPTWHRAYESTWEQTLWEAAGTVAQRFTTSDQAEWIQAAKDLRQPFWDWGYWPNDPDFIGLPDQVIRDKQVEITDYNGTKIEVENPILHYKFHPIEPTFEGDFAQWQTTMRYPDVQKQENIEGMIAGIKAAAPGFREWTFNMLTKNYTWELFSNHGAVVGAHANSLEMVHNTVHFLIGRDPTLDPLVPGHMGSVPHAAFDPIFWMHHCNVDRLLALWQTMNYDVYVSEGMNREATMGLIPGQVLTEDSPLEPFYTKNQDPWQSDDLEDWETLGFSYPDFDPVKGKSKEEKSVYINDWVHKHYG
T1 sequence (G1K3P4 1-150 partner): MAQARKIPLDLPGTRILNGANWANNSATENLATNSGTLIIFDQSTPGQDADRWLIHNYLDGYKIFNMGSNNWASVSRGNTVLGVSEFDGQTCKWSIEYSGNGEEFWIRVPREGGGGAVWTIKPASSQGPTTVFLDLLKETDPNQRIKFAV

Compound | inhibitory mechanism (reversibility) (mushroom tyrosinase [1]) | IC50 [2] [µM] | IC50 [3] [µM] | inhibition type (mushroom tyrosinase [4]) | KIS (inhibitor binding with enzyme–substrate complex) (mushroom tyrosinase [4]) [µM] | IC50 [5] [µM] | IC50 [6] [µM] | IC50 [7] [µM] | scavenging capacity of superoxide radical (O2·) [8] [%] | scavenging capacity of alkane radical (ROO·) [9] [%] | scavenging capacity of hydroxyl radical (·OH) [10] [%] | reducing ability [11] [%] | KIS (Fig. 3c) (mushroom tyrosinase [4]; plot of intercept versus concentration of shikonin) [µmol/L] | maximum inhibition, DPPH-radical scavenging assay [12] [%]
O=c1cc(-c2ccccc2)oc2cc(O)c(O)c(O)c12 [Baicalein] | reversible inhibitors | 9.09 | 58.6 | same inhibitor type as shikonin | 38.4 | 12.5 | 11.6 | 16.1 | – | – | – | – | – | –
O=C1c2c(O)cc(O)cc2O[C@H](c2cc(O)c(O)c(O)c2)[C@H]1O [Dihydromyricetin] | reversible inhibitors | 3.41 | 12.4 | same inhibitor type as shikonin | 23.6 | 6.25 | 4.2 | 7.6 | 90.0 | 63.9 | 83.9 | – | – | –
O=C(/C=C/c1ccc(O)c(O)c1)O[C@H](Cc1ccc(O)c(O)c1)C(=O)O [Rosmarinic acid] | reversible inhibitors | 6.82 | 28.5 | same inhibitor type as shikonin | 29.8 | 8.33 | 8.3 | 12.3 | – | – | – | – | – | –
CC(C)=CC[C@@H](O)C1=CC(=O)c2c(O)ccc(O)c2C1=O [Shikonin] | reversible inhibitor | 27.3 | 83.2 | competitive–uncompetitive mixed type inhibitor | 48.6 | 16.7 | 18.3 | 31.5 | – | – | – | 0.431 | 48.6 | –
CC(C)=CCCC1=CC(=O)c2c(O)ccc(O)c2C1=O [deoxy-shikonin] | – | – | – | – | – | – | – | – | – | – | – | – | – | 0.440
Isoeugenol | reversible inhibitors | 36.4 | 102 | same inhibitor type as shikonin | 64.7 | 25.1 | 32.5 | 38.2 | – | – | – | – | – | –
